Two compounds from patent publication US10323019B2, “Pyrazolylaminobenzimidazole derivatives as JAK inhibitors” (Eli Lilly and Company, priority 2016, dated 2019) can be followed below.

In test [1] the target is T1, JAK1 (Homo sapiens (Human), UniProt P23458). Put plainly: AlphaScreen SureFire p-STAT3-(p-Tyr705)-IL6-TF-1-JAK1 cell-based assay. To be noted: TF-1 cells, IL6 30 ng/mL, pSTAT3. As for the experimental part: AlphaScreen SureFire Protocol p-STAT3-(p-Tyr705)-IL6-TF-1-JAK1 Cell-Based Assay
The JAK1 cell based assay described below is used to determine the JAK1 cellular potency of test compounds.
Cell preparation: Starve TF-1 cells in DMEM medium with 0.5% […] and 1× Pen/Strep at 37° C. Plate 100K cells per well in BD 96 well black plates with clear bottoms. Maintain the plates at RT for 30-60 minutes before incubating overnight at 37° C., and 5% CO2. Count cells using Vi-Cell counter, using a cell suspension at […] and plated 100 μL/well in […] Biocoat plates (Catalog #354640).
Test compound preparation and treatment: Prepare compounds at 1:3 serial dilutions in DMSO and further dilute into the medium. Test compounds in a range of 10 point concentrations from 20,000 to 1 nM. Add diluted compound to corresponding cell plates. Incubate the plates at 37° C. for 20 min. Add IL6 solution at the final concentration 30 ng/mL to corresponding cell plates and continue to incubate at 37° C. for 30 min. Remove media and add 50 μL 1× lysis buffer to each well.
pSTAT3 detection: Perform the following steps sequentially: make acceptor mix (activation buffer/reaction buffer/acceptor beads); transfer 4 μL lysate from 96 well plates to 384 well-Proxiplates; add 5 μL acceptor mix to 384 proxiplate plate(s) and seal plates with aluminum seal; shake 1-2 minutes on plate shaker; incubate plate at RT for 2 hr with gentle shaking; make donor mix (donor beads in dilution buffer); add 2 μL donor mix to assay plates; seal plates with aluminum seal; shake 1-2 minutes on plate shaker; incubate at RT for 2 hr with gentle shaking; read plate with Envision; protocol AlphaScreen Surefire 384.

Another test addresses JAK2 (Homo sapiens (Human), UniProt O60674). The experiment in a line: JAK LanthaScreen Kinase Assay (TR-FRET), JAK2 in vitro enzyme assay. The format is biochemical. To be noted: 5 μM ATP. How it is done: (§1) The JAK LanthaScreen™ Kinase Assay (Invitrogen) is used to determine the ability of test compounds to inhibit JAK1, JAK2, and JAK3 kinase activity. These are TR-FRET assay formats that use long-lifetime terbium labeled antibody as the donor species and GFP-STAT1 as the acceptor species. Use the TR-FRET ratio to monitor JAK kinase activity where an increase in phosphorylation of the GFP-STAT1 results in an increase in the TR-FRET ratio. Perform the kinase reaction using a 12.5 μl reaction volume in shallow black 384-well Proxiplate®. Add reagents to obtain final reaction conditions of […], 1.76 mM Triton X-100, ATP (20.0 μM for JAK1 and JAK3 or 5 μM for JAK2) enzyme assays, 10.0 mM MgCl2, 1 mM EGTA and 0.01% Brij-35, […] GFP-STAT1, 14 nM JAK1 enzyme for JAK1, 1.0 nM for JAK2 or 2.5 nM for JAK3 enzyme assays, and 4% DMSO and serial dilutions of test compound (diluted 1:3 from 20,000 to 1 nM). Following ATP/GFP-STAT1 addition, centrifuge the assay plates for 1 minute at 1000 revolutions per minute (RPM). Allow the plates to incubate at RT for 60 minutes and then add 12.5 μl of a stopping buffer containing 20 mM EDTA, 2 nM Terbium-anti-phosphorylated Signal Transducers and Activators of Transcription [phosphorylation Tyrosine 701 amino acid] […] Use ACTIVITYBASE® 4.0 to fit the percent inhibition and ten-point compound concentration data to a four-parameter logistic equation.
In general terms: In TR-FRET formats the signal depends on donor and acceptor labels being close together.

A further test concerns the target JAK3 (Homo sapiens (Human), UniProt P52333). The experiment in a line: JAK LanthaScreen Kinase Assay (TR-FRET), JAK3 in vitro enzyme assay. It is filed as biochemical. To be noted: 20.0 μM ATP. As for the experimental part: as §1
Test [2] addresses T1, JAK1. Put plainly: JAK LanthaScreen Kinase Assay (TR-FRET), JAK1 in vitro enzyme assay. It is filed as biochemical. To be noted: 20.0 μM ATP. How it is done: as §1

SMILES strings stand for the structures.

For orientation: IC50 means the midpoint of a concentration-inhibition curve.

T1 sequence (P23458 whole entry): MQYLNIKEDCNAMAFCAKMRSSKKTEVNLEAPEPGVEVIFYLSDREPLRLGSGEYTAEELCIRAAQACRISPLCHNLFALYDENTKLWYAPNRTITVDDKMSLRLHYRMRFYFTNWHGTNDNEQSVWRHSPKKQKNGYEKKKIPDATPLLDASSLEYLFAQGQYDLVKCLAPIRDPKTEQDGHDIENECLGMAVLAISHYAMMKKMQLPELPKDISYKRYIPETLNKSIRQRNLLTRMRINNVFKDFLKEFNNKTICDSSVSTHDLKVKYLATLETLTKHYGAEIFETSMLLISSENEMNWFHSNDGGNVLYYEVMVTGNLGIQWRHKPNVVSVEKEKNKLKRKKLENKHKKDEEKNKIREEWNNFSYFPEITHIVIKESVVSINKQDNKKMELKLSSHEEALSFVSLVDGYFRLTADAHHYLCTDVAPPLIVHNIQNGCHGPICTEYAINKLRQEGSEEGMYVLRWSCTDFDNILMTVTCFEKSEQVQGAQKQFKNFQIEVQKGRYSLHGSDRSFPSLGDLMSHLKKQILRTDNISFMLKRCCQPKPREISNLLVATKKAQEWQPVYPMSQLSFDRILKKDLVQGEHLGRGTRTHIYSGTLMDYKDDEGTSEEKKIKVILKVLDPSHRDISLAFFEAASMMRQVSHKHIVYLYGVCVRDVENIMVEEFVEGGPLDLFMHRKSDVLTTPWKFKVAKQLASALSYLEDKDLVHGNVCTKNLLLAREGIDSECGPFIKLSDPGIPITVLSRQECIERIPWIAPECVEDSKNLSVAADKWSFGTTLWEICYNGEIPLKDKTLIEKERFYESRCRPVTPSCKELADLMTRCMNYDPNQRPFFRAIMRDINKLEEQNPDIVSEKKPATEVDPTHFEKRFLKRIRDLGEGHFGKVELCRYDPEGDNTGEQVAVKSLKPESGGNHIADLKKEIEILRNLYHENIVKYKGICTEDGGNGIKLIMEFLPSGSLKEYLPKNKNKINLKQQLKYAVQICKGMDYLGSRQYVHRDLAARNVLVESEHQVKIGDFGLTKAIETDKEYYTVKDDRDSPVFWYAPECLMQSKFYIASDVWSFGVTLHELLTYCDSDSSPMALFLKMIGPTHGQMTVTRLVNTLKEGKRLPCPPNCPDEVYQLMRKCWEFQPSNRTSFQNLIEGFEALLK
Sequence of JAK3 (P52333 whole entry): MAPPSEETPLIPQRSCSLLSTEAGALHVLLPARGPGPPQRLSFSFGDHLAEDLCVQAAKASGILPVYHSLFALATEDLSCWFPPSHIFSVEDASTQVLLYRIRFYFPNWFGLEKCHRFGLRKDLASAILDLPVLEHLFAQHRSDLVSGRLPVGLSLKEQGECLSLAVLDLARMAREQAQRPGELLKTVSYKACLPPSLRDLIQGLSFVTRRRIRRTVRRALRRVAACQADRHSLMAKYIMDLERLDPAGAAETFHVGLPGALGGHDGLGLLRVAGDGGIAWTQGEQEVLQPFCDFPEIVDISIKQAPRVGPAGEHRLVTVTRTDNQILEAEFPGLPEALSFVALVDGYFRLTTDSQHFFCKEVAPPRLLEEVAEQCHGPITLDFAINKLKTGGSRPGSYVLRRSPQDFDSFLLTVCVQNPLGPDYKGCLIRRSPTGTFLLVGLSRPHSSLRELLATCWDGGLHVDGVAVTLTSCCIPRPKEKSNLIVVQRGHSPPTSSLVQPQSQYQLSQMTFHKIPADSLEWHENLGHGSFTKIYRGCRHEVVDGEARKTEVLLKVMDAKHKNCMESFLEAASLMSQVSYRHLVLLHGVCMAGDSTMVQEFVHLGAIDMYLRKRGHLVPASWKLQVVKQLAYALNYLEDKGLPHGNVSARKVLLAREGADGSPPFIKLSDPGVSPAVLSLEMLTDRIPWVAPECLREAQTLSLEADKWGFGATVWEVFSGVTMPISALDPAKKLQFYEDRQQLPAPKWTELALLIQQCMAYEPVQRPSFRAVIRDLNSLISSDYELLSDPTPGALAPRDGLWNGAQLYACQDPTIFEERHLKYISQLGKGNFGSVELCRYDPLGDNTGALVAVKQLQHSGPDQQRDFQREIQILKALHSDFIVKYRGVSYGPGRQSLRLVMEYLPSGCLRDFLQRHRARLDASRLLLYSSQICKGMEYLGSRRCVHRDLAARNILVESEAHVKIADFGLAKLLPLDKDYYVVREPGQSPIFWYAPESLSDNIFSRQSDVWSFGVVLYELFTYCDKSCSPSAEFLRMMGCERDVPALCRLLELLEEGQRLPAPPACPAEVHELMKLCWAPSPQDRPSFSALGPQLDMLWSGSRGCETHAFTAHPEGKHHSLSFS
Sequence of JAK2 (O60674 whole entry): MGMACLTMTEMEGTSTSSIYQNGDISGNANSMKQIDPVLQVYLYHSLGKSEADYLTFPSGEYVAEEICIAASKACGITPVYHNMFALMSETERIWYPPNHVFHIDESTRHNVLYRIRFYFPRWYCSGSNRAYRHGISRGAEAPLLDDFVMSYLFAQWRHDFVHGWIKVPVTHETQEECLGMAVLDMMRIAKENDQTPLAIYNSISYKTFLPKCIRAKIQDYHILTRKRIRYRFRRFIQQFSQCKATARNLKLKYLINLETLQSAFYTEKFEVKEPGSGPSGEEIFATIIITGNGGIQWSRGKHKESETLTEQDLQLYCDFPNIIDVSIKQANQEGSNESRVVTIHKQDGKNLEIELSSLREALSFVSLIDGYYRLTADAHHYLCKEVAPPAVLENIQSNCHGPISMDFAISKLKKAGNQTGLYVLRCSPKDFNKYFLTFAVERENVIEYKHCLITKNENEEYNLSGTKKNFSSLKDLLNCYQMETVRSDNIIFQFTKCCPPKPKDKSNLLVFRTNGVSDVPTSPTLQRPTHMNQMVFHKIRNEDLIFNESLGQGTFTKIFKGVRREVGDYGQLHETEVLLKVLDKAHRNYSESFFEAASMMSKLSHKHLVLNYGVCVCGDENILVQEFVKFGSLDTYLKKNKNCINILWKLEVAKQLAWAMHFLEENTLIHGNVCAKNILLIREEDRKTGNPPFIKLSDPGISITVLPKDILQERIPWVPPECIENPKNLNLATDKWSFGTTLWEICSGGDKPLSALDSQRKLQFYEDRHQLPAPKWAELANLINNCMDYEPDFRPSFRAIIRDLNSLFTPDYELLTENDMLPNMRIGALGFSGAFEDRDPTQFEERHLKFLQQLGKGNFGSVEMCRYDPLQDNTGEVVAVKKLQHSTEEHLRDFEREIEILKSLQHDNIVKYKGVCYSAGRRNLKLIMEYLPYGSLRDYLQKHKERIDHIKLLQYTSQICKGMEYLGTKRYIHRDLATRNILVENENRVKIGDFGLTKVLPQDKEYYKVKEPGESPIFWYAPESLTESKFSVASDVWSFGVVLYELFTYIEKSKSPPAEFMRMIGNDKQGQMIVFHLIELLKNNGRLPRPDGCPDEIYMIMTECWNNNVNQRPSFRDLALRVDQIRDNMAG

As to `COCCCn1nc(Nc2cc(O[C@H]3CC[C@@H](NC[C@@H](O)C(F)(F)F)CC3)cc3c2ncn3C)cc1C` [Example 1, (2R)-1,1,1-Trifluoro-3-({cis-4-[(4-{[1-(3-methoxypropyl)-5-methyl-1H-pyrazol-3-yl]amino}-1-methyl-1H-benzimidazol-6-yl)oxy]cyclohexyl}amino)propan-2-ol], the IC50 against JAK1 [1] is 0.154 ± 0.023 nM; against JAK2 it was 1200 ± 550 nM; on JAK3, 3720 ± 1300 nM; against JAK1 [2] it was 3.25 ± 0.99 nM.
As for `COCCn1nc(Nc2cc(O[C@H]3CC[C@@H](NC[C@@H](O)C(F)(F)F)CC3)cc3c2ncn3C)cc1C` [Example 2, (2R)-1,1,1-Trifluoro-3-({cis-4-[(4-{[1-(2-methoxyethyl)-5-methyl-1H-pyrazol-3-yl]amino}-1-methyl-1H-benzimidazol-6-yl)oxy]cyclohexyl}amino)propan-2-ol], at JAK1 [1], inhibition was half-maximal at 0.275 ± 0.102 nM (IC50).
